Values quoted from earlier work in patent publication US20230310471A1, “METHODS, DEVICES, AND SYSTEMS FOR TREATING LENS PROTEIN AGGREGATION DISEASES” (priority 2022, published 2023).

Test system: vimentin
Conditions: background statement, no experimental details printed

Compound	vimentin degradation
O=S(=O)(F)Cc1ccccc1 [PMSF, phenylmethylsulfonyl fluoride]	decrease vimentin degradation
CC(=O)N[C@@H](CC(C)C)C(=O)N[C@@H](CC(C)C)C(=O)N[C@H](C=O)CCCNC(=N)N [leupeptin]	decrease vimentin degradation
